The values below come from US20250179061A1 (SIRONAX LTD., priority 2022, published 2025).

Read-outs that look alike come from different tables or passages of the source. Bounds are passed on as bounds.

The test concerns HT-29 cells. Briefly: HT-29 necroptosis cell viability assay (TNF-α/SMAC mimetic/zVAD-FMK, CellTiter-Glo). To be noted: Homo sapiens. The format is cell-based. The essentials: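 HT-29 cells (~5,000/well, overnight) in FBS-free McCoy's 5A with TNF-α 10 ng/ml, SMAC mimetic 6 μM and zVAD-FMK 10 μM plus 10-point 1:3 compound titration, 20 h at 37°C. ATP measured by CellTiter-Glo luminescence; IC50 as geometric mean of duplicates.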
For orientation: Cellular ATP, detected with luciferase, serves as a proxy for viable cell number.

[1] abbreviates: HT-29 cells stimulated with TNF-α (10 ng/ml), SMAC mimetic (6 μM) and zVAD-FMK (10 μM), 20 hours, CellTiter-Glo ATP luminescence, geometric mean IC50 from 10 points, read-out: Activity.
Setting [2] is: HT-29, HT-29 necroptosis cell viability assay, class symbols for IC50, read-out: Activity.
The mark [3] stands for this setting: HT-29, HT-29 necroptosis cell viability, IC50 class symbols, read-out: Activity.
Where [4] appears, read: HT-29, HT-29 cells, necroptosis induced by TNF-α/SMAC mimetic/zVAD-FMK, CellTiter-Glo, read-out: Activity (IC50 class).

Take `O=c1n(Cc2ccccc2)cnn1-c1ccc(Cc2ccccc2)cc1` [Example 66, 4-benzyl-2-(4-benzylphenyl)-2,4-dihydro-3H-1,2,4-triazol-3-one]: the IC50 under setting [1] is under 100 nM. As to `Cc1nc(C#N)cn1Cc1ccc(-n2ncn(Cc3c(F)cccc3F)c2=O)cc1` [Example 186, 1-(4-(4-(2,6-difluorobenzyl)-5-oxo-4,5-dihydro-1H-1,2,4-triazol-1-yl)benzyl)-2-methyl-1H-imidazole-4-carbonitrile], the IC50 under setting [2] is under 100 nM. With `Cc1nccn1Cc1ccc(-n2ncn(Cc3c(F)cccc3F)c2=O)cc1` [Example 187, 4-(2,6-difluorobenzyl)-2-(4-((2-methyl-1H-imidazol-1-yl)methyl)phenyl)-2,4-dihydro-3H-1,2,4-triazol-3-one], the IC50 under setting [2] fell in the range of 100 to 1000 nM.

With `Cc1nc(N2C[C@@H](O)CC2=O)sc1Oc1ccc(-n2ncn(Cc3c(F)cccc3F)c2=O)cc1F` [Example 76, (S)-4-(2,6-difluorobenzyl)-2-(3-fluoro-4-((2-(4-hydroxy-2-oxopyrrolidin-1-yl)-4-methylthiazol-5-yl)oxy)phenyl)-2,4-dihydro-3H-1,2,4-triazol-3-one], the IC50 under setting [1] was under 100 nM. On to `O=c1n(Cc2c(F)cccc2F)cnn1-c1ccc(Oc2ccnc(N3CC4(CCCO4)C3)c2)cc1` [Example 331, 2-(4-((2-(5-oxa-2-azaspiro[3.4]octan-2-yl)pyridin-4-yl)oxy)phenyl)-4-(2,6-difluorobenzyl)-2,4-dihydro-3H-1,2,4-triazol-3-one], for which the IC50 under setting [3] was under 100 nM. Turning to `Cc1nc(C(N)=O)sc1Oc1ccc(-n2nc3n(c2=O)[C@H](c2cncc(F)c2)CC3)cc1F` (single isomer, unassigned) [Example 700], under setting [1], the IC50 is under 100 nM. As to `CC1(C#N)CN(c2cc(Oc3ccc(-n4ncn(Cc5c(F)cccc5F)c4=O)cc3)ccn2)C1` [Example 383, 1-(4-(4-(4-(2,6-difluorobenzyl)-5-oxo-4,5-dihydro-1H-1,2,4-triazol-1-yl)phenoxy)pyridin-2-yl)-3-methylazetidine-3-carbonitrile], under setting [3], the IC50 was under 100 nM.

`Cc1nc(C#N)sc1Oc1ccc(-n2ncn(Cc3cc(F)ccc3F)c2=O)cc1F` [Example 572, 5-(4-(4-(2,5-difluorobenzyl)-5-oxo-4,5-dihydro-1H-1,2,4-triazol-1-yl)-2-fluorophenoxy)-4-methylthiazole-2-carbonitrile]: under setting [2], the IC50 is under 100 nM. Turning to `Cc1nc(N2CC(N)(CO)C2)sc1Oc1ccc(-n2ncn(Cc3c(F)cccc3F)c2=O)cc1` [Example 71, 2-(4-((2-(3-amino-3-(hydroxymethyl)azetidin-1-yl)-4-methylthiazol-5-yl)oxy)phenyl)-4-(2,6-difluorobenzyl)-2,4-dihydro-3H-1,2,4-triazol-3-one], the IC50 under setting [1] is under 100 nM. Turning to `Cc1nc(C(C)(C)O)c(C)n1Cc1ccc(-n2ncn(Cc3c(F)cccc3F)c2=O)cc1F` [Example 135, 4-(2,6-difluorobenzyl)-2-(3-fluoro-4-((4-(2-hydroxypropan-2-yl)-2,5-dimethyl-1H-imidazol-1-yl)methyl)phenyl)-2,4-dihydro-3H-1,2,4-triazol-3-one], the IC50 under setting [2] was in the range of 1000 to 10000 nM. Regarding `Cc1nc(C(N)=O)sc1Oc1ncc(-n2ncn(Cc3c(F)cccc3F)c2=O)cc1Cl` [Example 647, 5-((3-chloro-5-(4-(2,6-difluorobenzy1)-5-oxo-4,5-dihydro-1H-1,2,4-triazol-1-yl)pyridin-2-yl)oxy)-4-methylthiazole-2-carboxamide], the IC50 under setting [4] was under 100 nM. Consider `Cc1cnc(Cl)cc1Oc1ccc(-n2ncn(Cc3c(F)cccc3F)c2=O)cc1Cl` [Example 290, 2-(3-chloro-4-((2-chloro-5-methylpyridin-4-yl)oxy)phenyl)-4-(2,6-difluorobenzyl)-2,4-dihydro-3H-1,2,4-triazol-3-one], for which, under setting [3], the IC50 is under 100 nM. Same read-out and setting: for `N#CC12CC(Nc3nccc(Oc4ccc(-n5ncn(Cc6c(F)cccc6F)c5=O)cc4F)c3F)(C1)C2` [Example 246, 3-((4-(4-(4-(2,6-difluorobenzyl)-5-oxo-4,5-dihydro-1H-1,2,4-triazol-1-yl)-2-fluorophenoxy)-3-fluoropyridin-2-yl)amino)bicyclo[1.1.1]pentane-1-carbonitrile] the value was under 100 nM; for `CC1(C#N)CN(c2cc(Oc3ccc(-n4nc5n(c4=O)C(c4ccccc4)CC5)cc3F)c(F)cn2)C1` (stereo not shown) [Example 292, 1-(5-fluoro-4-(2-fluoro-4-(3-oxo-5-phenyl-6,7-dihydro-3H-pyrrolo[2,1-c][1,2,4]triazol-2(5H)-yl)phenoxy)pyridin-2-yl)-3-methylazetidine-3-carbonitrile], under 100 nM. For the compound `Cc1ncsc1Oc1ccc(-n2nc3n(c2=O)[C@H](c2ccccc2)CC3)cc1F` (single isomer, unassigned) [Example 3], the IC50 under setting [1] is under 100 nM. As for `Cc1nc(C(N)=O)cn1Cc1ccc(-n2ncn(Cc3c(F)cccc3F)c2=O)cc1F` [Example 103, 1-(4-(4-(2,6-difluorobenzyl)-5-oxo-4,5-dihydro-1H-1,2,4-triazol-1-yl)-2-fluorobenzyl)-2-methyl-1H-imidazole-4-carboxamide], under setting [1], the IC50 lay in the range of 100 to 1000 nM. Consider `C[C@H]1[C@@H](NC(=O)OC(C)(C)C)CN1c1cc(Oc2ccc(-n3ncn(Cc4c(F)cccc4F)c3=O)cc2F)c(F)cn1` [Example 291, tert-butyl ((2S,3S)-1-(4-(4-(4-(2,6-difluorobenzyl)-5-oxo-4,5-dihydro-1H-1,2,4-triazol-1-yl)-2-fluorophenoxy)-5-fluoropyridin-2-yl)-2-methylazetidin-3-yl)carbamate], for which the IC50 under setting [3] is under 100 nM. For the compound `COC1(C#N)CN(c2cc(Oc3ccc(-n4ncn(Cc5c(F)cccc5F)c4=O)cc3F)ccn2)C1` [Example 367, 1-(4-(4-(4-(2,6-difluorobenzyl)-5-oxo-4,5-dihydro-1H-1,2,4-triazol-1-yl)-2-fluorophenoxy)pyridin-2-yl)-3-methoxyazetidine-3-carbonitrile], under setting [3], the IC50 was under 100 nM. With `Cc1cc(C(N)=O)sc1Oc1ccc(-n2nc3n(c2=O)[C@H](c2ccccc2)CC3)cc1F` (single isomer, unassigned) [Example 689], the IC50 under setting [1] is under 100 nM. Consider `C[C@H]1C[C@@H](N)CN1c1cc(Oc2ccc(-n3ncn(Cc4c(F)cccc4F)c3=O)cc2F)ccn1` [Example 369, 2-(4-((2-((2S,4R)-4-amino-2-methylpyrrolidin-1-yl)pyridin-4-yl)oxy)-3-fluorophenyl)-4-(2,6-difluorobenzyl)-2,4-dihydro-3H-1,2,4-triazol-3-one], for which the IC50 under setting [3] was under 100 nM. Turning to `Cc1nc(C(N)=O)sc1Oc1ccc(-n2ncn(Cc3ccccc3C#N)c2=O)cc1F` [Example 566, 5-(4-(4-(2-cyanobenzyl)-5-oxo-4,5-dihydro-1H-1,2,4-triazol-1-yl)-2-fluorophenoxy)-4-methylthiazole-2-carboxamide], under setting [2], the IC50 is under 100 nM. With `Cc1nc(C(N)=O)c(Oc2ccc(-n3ncn(Cc4c(F)cccc4F)c3=O)cc2F)s1` [Example 100, 5-(4-(4-(2,6-difluorobenzyl)-5-oxo-4,5-dihydro-1H-1,2,4-triazol-1-yl)-2-fluorophenoxy)-2-methylthiazole-4-carboxamide], the IC50 under setting [1] was 100 to 1000 nM. With `Cc1c(I)ncn1Cc1ccc(-n2ncn(Cc3c(F)cccc3F)c2=O)cc1` [Example 539, 4-(2,6-difluorobenzyl)-2-(4-((4-iodo-5-methyl-1H-imidazol-1-yl)methyl)phenyl)-2,4-dihydro-3H-1,2,4-triazol-3-one], the IC50 under setting [2] was under 100 nM.

For the compound `Cc1nc(C#N)sc1Oc1ccc(-n2ncn(Cc3ccccc3C#N)c2=O)cc1F` [Example 570, 5-(4-(4-(2-cyanobenzyl)-5-oxo-4,5-dihydro-1H-1,2,4-triazol-1-yl)-2-fluorophenoxy)-4-methylthiazole-2-carbonitrile], under setting [2], the IC50 fell in the range of 100 to 1000 nM. For `COC1(C#N)CN(c2cc(Oc3ccc(-n4ncn(Cc5c(F)cccc5F)c4=O)cc3F)c(Cl)cn2)C1` [Example 231, 1-(5-chloro-4-(4-(4-(2,6-difluorobenzyl)-5-oxo-4,5-dihydro-1H-1,2,4-triazol-1-yl)-2-fluorophenoxy)pyridin-2-yl)-3-methoxyazetidine-3-carbonitrile], the IC50 under setting [3] was under 100 nM.

Turning to `Cc1nc(CO)c(Oc2ccc(-n3ncn(Cc4c(F)cccc4F)c3=O)cc2)s1` [Example 146], the IC50 under setting [2] lay within 100 to 1000 nM. Consider `Cc1nc(C(N)=O)sc1Oc1ncc(-n2nc3n(c2=O)[C@@H](c2ccccc2)CC3)cc1Cl` (single isomer, unassigned) [Example 641], for which the IC50 under setting [4] fell in the range of 1000 to 10000 nM. Turning to `Cc1nc(CC(N)=O)sc1Oc1ccc(-n2ncn(Cc3c(F)cccc3F)c2=O)cc1F` [Example 168, 2-(5-(4-(4-(2,6-difluorobenzyl)-5-oxo-4,5-dihydro-1H-1,2,4-triazol-1-yl)-2-fluorophenoxy)-4-methylthiazol-2-yl)acetamide], the IC50 under setting [2] is under 100 nM. In the case of `O=c1n(-c2ccc(N3CCOc4ccccc43)cc2)nc(Cl)n1Cc1ccccc1` [Example 681, 4-benzyl-5-chloro-2-(4-(2,3-dihydro-4H-benzo[b][1,4]oxazin-4-yl)phenyl)-2,4-dihydro-3H-1,2,4-triazol-3-one], under setting [4], the IC50 was in the range of 100 to 1000 nM. Regarding `O=c1n(-c2ccc(Oc3ccccc3)cc2)nc2n1C(c1ccccc1)CC2` (stereo not shown) [Example 428, 2-(4-phenoxyphenyl)-5-phenyl-2,5,6,7-tetrahydro-3H-pyrrolo[2,1-c][1,2,4]triazol-3-one], the IC50 under setting [3] was under 100 nM. As to `CNC(=O)c1nc(C)c(Oc2ccc(-n3ncn(Cc4cnccc4Cl)c3=O)cc2F)s1` [Example 599, 5-(4-(4-((4-chloropyridin-3-yl)methyl)-5-oxo-4,5-dihydro-1H-1,2,4-triazol-1-yl)-2-fluorophenoxy)-N,4-dimethylthiazole-2-carboxamide], the IC50 under setting [2] is under 100 nM.
